Some results are limits rather than exact numbers.

Assay [1] has as its system NL4-3∆Env-NanoLuc/SARS-CoV-2 mutant pseudovirus E484K. The assay is classed as cell-based.
Assay [2] concerns NL4-3∆Env-NanoLuc/SARS-CoV-2 mutant pseudovirus N501Y/∆69–70. It counts as cell-based.
Assay [3] relates to NL4-3∆Env-NanoLuc/SARS-CoV-2 mutant pseudovirus P681H. It counts as cell-based.
Assay [4] relates to NL4-3∆Env-NanoLuc/SARS-CoV-2 mutant pseudovirus E484K/N501Y. The assay is classed as cell-based.
The test system of assay [5] is NL4-3∆Env-NanoLuc/SARS-CoV-2 mutant pseudovirus N501Y/D614G. It counts as cell-based.
The test system of assay [6] is NL4-3∆Env-NanoLuc/SARS-CoV-2 mutant pseudovirus N501Y. The assay is classed as cell-based.
Assay [7] relates to NL4-3∆Env-NanoLuc/SARS-CoV-2 mutant pseudovirus N501Y/∆69–70/P681H. It counts as cell-based.
Assay [8] concerns NL4-3∆Env-NanoLuc/SARS-CoV-2 mutant pseudovirus ∆69–70. It counts as cell-based.
Assay [9] has as its system NL4-3∆Env-NanoLuc/SARS-CoV-2 mutant pseudovirus E484K/N501Y/D614G. It counts as cell-based.
For assay [10], the target named is SARS-CoV-2 spike (active trimer) His-tag (Severe acute respiratory syndrome coronavirus 2, UniProt P0DTC2, K986P/R682S/R685S/V987P). The assay is classed as binding.
The test system of assay [11] is NL4-3∆Env-NanoLuc/SARS-CoV-2 mutant pseudovirus D614G/D950N. It counts as cell-based.
Assay [12] deals with NL4-3∆Env-NanoLuc/SARS-CoV-2 mutant pseudovirus D614G. The assay is classed as cell-based.
The subject of assay [13] is NL4-3∆Env-NanoLuc/SARS-CoV-2 mutant pseudovirus D614G/P681R/D950N. It counts as cell-based.
Assay [14] deals with NL4-3∆Env-NanoLuc/SARS-CoV-2 mutant pseudovirus D614G/P681R. It counts as cell-based.
In assay [15] the test system is NL4-3∆Env-NanoLuc/SARS-CoV-2 mutant pseudovirus D950N. The assay is classed as cell-based.
The test system of assay [16] is NL4-3∆Env-NanoLuc/SARS-CoV-2 mutant pseudovirus E484K/D614G. It counts as cell-based.

As for `O=C(O)c1cc(-c2ccc(/C=C3\SC(=S)N(CCc4ccccc4)C3=O)o2)ccc1Cl` [NBCoV1], the IC50 in assay [1] was 0.042 ± 0.0007 µM; in assay [2], 0.046 ± 0.0005 µM; in assay [3] it was 0.035 ± 0.0005 µM; in [4] it was 0.032 ± 0.0005 µM; in [5] it was 0.057 ± 0.002 µM; in [6], 0.0525 ± 0.0002 µM. Besides, the IC50 in [7] amounted to 0.057 ± 0.0005 µM; in assay [8] it was 0.048 ± 0.003 µM; in [9] it was 0.045 ± 0.002 µM; in assay [11] it was 0.033 ± 0.01 µM; in [12], 0.056 ± 0.0006 µM; in assay [13] it was 0.058 ± 0.007 µM. The IC50 in assay [14] came to 0.049 ± 0.013 µM; in [15] it was 0.0477 ± 0.015 µM; in [16] it was 0.033 ± 0.0005 µM. The same molecule displayed a ka in [10] of 1040 M⁻¹ s⁻¹. The same molecule showed a kd in [10] of 0.00162 s⁻¹.

Regarding `Cc1ccc(-c2ccc(/C=C3\SC(=S)N(CCc4ccccc4)C3=O)o2)cc1C(=O)O` [NBCoV4], the concentration for half-maximal inhibition (IC50) worked out at 0.045 ± 0.0004 µM in assay [1]; 0.053 ± 0.011 µM in [2]; 0.044 ± 0.0004 µM in assay [3]; 0.051 ± 0.005 µM in [4]; 0.077 ± 0.029 µM in [5]; 0.051 ± 0.0004 µM in assay [6]. Moreover, the IC50 in assay [7] is 0.158 ± 0.031 µM; in [8], 0.053 ± 0.0005 µM; in assay [9] it was 0.043 ± 0.0025 µM; in [11] it was 0.0775 ± 0.0165 µM; in [12] it was 0.058 ± 0.0004 µM; in assay [13] it was 0.239 ± 0.007 µM. The IC50 in assay [14] is 0.148 ± 0.03 µM; in [15], 0.207 ± 0.029 µM; in assay [16], 0.044 ± 0.003 µM.

In the case of `O=C(O)c1cccc(-c2ccc(/C=C3\SC(=S)N(CCc4ccccc4)C3=O)o2)c1` [NBCoV2], the 50% inhibitory concentration (IC50) amounted to 0.045 ± 0.0002 µM in [1]; 0.066 ± 0.001 µM in assay [2]; 0.051 ± 0.0003 µM in [3]; 0.036 ± 0.0004 µM in assay [4]; 0.059 ± 0.013 µM in assay [5]; 0.049 ± 0.0005 µM in assay [6]. Moreover, the IC50 came out at 0.079 ± 0.014 µM in assay [7]; 0.055 ± 0.0005 µM in assay [8]; 0.043 ± 0.0005 µM in assay [9]; 0.026 ± 0.002 µM in assay [11]; 0.061 ± 0.0003 µM in assay [12]; 0.053 ± 0.012 µM in assay [13]. In addition, the IC50 in assay [14] came out at 0.065 ± 0.018 µM; in assay [15] it was 0.0887 ± 0.006 µM; in assay [16], 0.035 ± 0.0002 µM. Also, the ka in assay [10] amounted to 872 M⁻¹ s⁻¹. Besides, the kd in assay [10] was determined as 0.00468 s⁻¹.

Consider `O=C(O)c1cc(-c2ccc(/C=C3\SC(=S)N(CCc4ccccc4)C3=O)o2)ccc1F` [NBCoV3], for which the IC50 amounted to 0.08 ± 0.0106 µM in assay [1]; 0.094 ± 0.016 µM in [2]; 0.055 ± 0.0003 µM in assay [3]; 0.042 ± 0.001 µM in assay [4]; 0.104 ± 0.001 µM in assay [5]; 0.0445 ± 0.0005 µM in assay [6]. For the same molecule, the IC50 in [7] came out at 0.232 ± 0.017 µM; in assay [8], 0.069 ± 0.007 µM; in assay [9], 0.101 ± 0.002 µM; in [12], 0.145 ± 0.028 µM; in [16], 0.044 ± 0.0008 µM.

Regarding `Cc1c(C(=O)O)cccc1-c1ccc(/C=C2\SC(=S)N(CCc3ccccc3)C2=O)o1` [NBCoV5], the half-maximal inhibitory concentration (IC50) in assay [1] was over 2 µM; in assay [2], over 2 µM; in [3], 1.72 ± 0.215 µM; in assay [4], over 2 µM; in [5], over 2 µM; in assay [6], over 2 µM. Moreover, the concentration for half-maximal inhibition (IC50) was over 2 µM in [7]; over 2 µM in [8]; over 2 µM in assay [9]; over 2 µM in [11]; 1.73 ± 0.0625 µM in [12]; over 2 µM in assay [13]. For the same molecule, the IC50 in [14] was over 2 µM; in assay [15], over 2 µM; in assay [16] it was 1.85 ± 0.124 µM.

Source of the values: paper PMC8780828 (Viruses, 2021).
